Data on one molecule can be found in US11571418B2, “Platinum compounds that inhibit constitutive STAT3 signaling and induce cell cycle arrest and apoptosis of malignant cells” (H. LEE MOFFITT CANCER CENTER AND RESEARCH INSTITUTE, INC., priority 2011, dated 2023).

The structures appear in SMILES notation.

Experiment [1] relates to Stat3 tyrosine phosphorylation. In words: Stat3 tyrosine phosphorylation, Western blot. The experiment is classed as cell-based. To be noted: mouse fibroblasts, time- and dose-dependent. On the procedure: FIGS. 3A-3D. Inhibition of Stat3-mediated gene expression by PLATINUM-401. (FIG. 3A) and (FIG. 3B) v-Src-transformed mouse fibroblasts that stably express Stat3-dependent (NIH3T3/v-Src/pLucTKS3) and Stat3-independent (NIH3T3/v-Src/pRLSRE) luciferase reporters or β-galactosidase (β-gal), as well as normal mouse fibroblast (NIH3T3) transiently transfected with pLucTKS3, pGL2-VEGF-Luc, NFkB-Luc or pLucSRE together with or without v-Src were treated with or without PLATINUM-401 for 48 h. Cytosolic extracts were then prepared from cells for luciferase and […] activities measurements. Values are the means and S.D. of three to five independent assays; (FIG. 3C) and (FIG. 3D) Nuclear extracts or whole cell lysates were prepared from IL-6-stimulated normal mouse fibroblasts (NIH3T3) or their v-Src-transformed counterpart (NIH3T3/v-Src) that are treated with or without PLATINUM-401 for different times. Samples of equal total proteins were then subjected to in vitro DNA-binding activity and EMSA analysis or for SDS-PAGE and Western blot analysis for phosphorylated and total Stat3.
Western blot—Whole-cell lysates were prepared in boiling sodium dodecyl sulfate (SDS) sample-loading buffer to extract total proteins from the cytoplasm and nucleus. […]
To further investigate the activities of PLATINUM-401, the inventors treated malignant cells and measured effects on Stat3 signaling. […]

For the next experiment, the system named is Cyclin D1. In words: Cyclin D1 detection, in situ and Western blot. The experiment is classed as cell-based, mouse. To be noted: NIH3T3/v-Src, 48 h. On the procedure:
FIGS. 8A and 8B. Inhibition of Cyclin D1 and Bcl-xL induction by PLATINUM-401. Viral Src-transformed fibroblasts (NIH3T3/v-Src) and human breast cancer cell line MDA-MB-435 that contain constitutively-activated Stat3 were treated with or without platinum complex for 48 h. Cells were processed for immunohistochemistry, or cell lysates were prepared from cells and subjected to 5% PAGE and Western blot analysis, as indicated in “Materials and Methods.” (FIG. 8A) Detection of Cyclin D1; (FIG. 8B) Detection of Bcl-xL. Positions of Cyclin D1 and Bcl-xL proteins are shown. Beta-actin levels are shown for normalizing for equal total protein. Data are representative of 3 independent determinations.
Western blot—Whole-cell lysates were prepared in boiling sodium dodecyl sulfate (SDS) sample-loading buffer to extract total proteins from the cytoplasm and nucleus. Equivalent amounts of total cellular protein were electrophoresed on an SDS-10% polyacrylamide gel and transferred onto nitrocellulose membranes. Probing of nitrocellulose membranes with primary antibodies and detection of horseradish peroxidase-conjugated secondary antibodies by enhanced chemiluminescence (Amersham, Piscataway, N.J.) were performed as previously described (Garcia et al., 2001; Turkson et al., 2004b; Zhang et al., 2000). […]
For orientation: Immunoblotting shows a protein as a band on a membrane.

With `CC(O)CN1CCN(CC(C)O)CC1` (centres unmarked) [PLATINUM-401], in experiment [1], the Stat3 tyrosine phosphorylation entry was “inhibits”. Also, the “Cyclin D1 level” value in the experiment with Cyclin D1 is “significantly diminished”.
